Data as given in the NIST ThermoML archive (doi:10.1016/j.tca.2009.08.016).
± gives the expanded uncertainty stated by the source.

Legend:
[1] = Crystal; DTA
[2] = Molar enthalpy of transition or fusion; conditions: Crystal; DSC

With `CCN(CC)CC(=O)Nc1c(C)cccc1C` [2-(diethylamino)-N-(2,6-dimethylphenyl)acetamide] the Normal melting temperature [1] was 67.54 ± 1.1 °C and the “Molar enthalpy of transition or fusion” value [2] was 3.92 ± 0.12 kcal/mol.

In the case of `O=C(Oc1ccccc1)c1ccccc1O` [phenyl salicylate], the Normal melting temperature [1] is reported as 41.93 ± 1.1 °C and the “Molar enthalpy of transition or fusion” value [2] is reported as 4.59 ± 0.239 kcal/mol.
